Data: patent publication US10364226B2, “Pyridazinone compounds and uses thereof” (priority 2013, dated 2019)

Tests used:
[1] = system: Influenza strain A549 A/WSN/33 (H1N1); assay: Influenza Antiviral Assay; assay type: cell-based, Influenza A virus; details: Influenza A virus, A549, 20 h, neuraminidase fluorescence readout, read-out: % Inhibition
[2] = molecular target: EN PA (Influenza A virus, UniProt P15659); assay: EN PA FRET Inhibition Assay; assay type: biochemical; details: read-out: Potency

Compound | EC50 [1] [nM] | IC50 [2] [nM]
O=C(NCc1ccc(F)c(Cl)c1)c1nn(CC2(c3ccc(Cl)c(Cl)c3)CCCC2)cc(O)c1=O [Compound 784] | < 20000 | 100 to 1000
CC1(C)CC(Cn2cc(O)c(=O)c(C(=O)O)n2)(c2ccccc2)C1 [Compound 785] | > 100000 | < 100
CC1(C)CCC(Cn2cc(O)c(=O)c(C(=O)O)n2)(c2ccccc2)C1 (stereo not drawn) [Compound 786] | > 100000 | < 100
CNC(=O)c1nn(CC2(n3cc(C)c4cccnc43)CCCCC2)cc(O)c1=O [Compound 788] | < 20000 | < 100
CNC(=O)c1nn(CC2(n3cc(C)c4cccnc43)CCCC2)cc(OC(=O)OC(C)(C)C)c1=O [Compound 789] | < 20000 | < 100
CNC(=O)c1nn(CC2(n3c(C)cc4cccnc43)CCCC2)cc(O)c1=O [Compound 790] | < 20000 | < 100
CCCC(Cn1cc(O)c(=O)c(C(=O)NC)n1)n1cc(C)c2cccnc21 (stereo not drawn) [Compound 791] | < 20000 | 100 to 1000
Cc1cn(C2(Cn3cc(O)c(=O)c(C(=O)NC(C)(C)C)n3)CCCC2)c2ncccc12 [Compound 792] | < 20000 | < 100
CNC(=O)c1nn(CC2(n3cc(C)c4cccnc43)CCCC2)cc(OC(=O)OC(C)C)c1=O [Compound 793] | < 20000 | 100 to 1000
O=C(c1nn(CC2(n3cc(Cl)c4cccnc43)CCCC2)cc(O)c1=O)N1CCC1 [Compound 794] | < 20000 | < 100
CC(=O)c1nn(CC2(n3cc(C)c4cccnc43)CCCC2)cc(O)c1=O [Compound 795] | < 20000 | 100 to 1000
CC1(C)CCC(Cn2cc(O)c(=O)c(C(=O)NCc3ccccc3)n2)(c2ccccc2)C1 (stereo not drawn) [Compound 796] | > 100000 | 100 to 1000
CC1(C)CCC(Cn2cc(O)c(=O)c(C(=O)NCc3ccc(F)c(Cl)c3)n2)(c2ccccc2)C1 (stereo not drawn) [Compound 797] | < 20000 | 100 to 1000
CC1(C)CC(Cn2cc(O)c(=O)c(C(=O)NCc3ccccc3)n2)(c2ccccc2)C1 [Compound 798] | > 100000 | 100 to 1000
CC1(C)CC(Cn2cc(O)c(=O)c(C(=O)NCc3ccc(F)c(Cl)c3)n2)(c2ccccc2)C1 [Compound 799] | < 20000 | < 100
CNC(=O)c1nn(CC2(c3cc(F)cc(C(F)(F)F)c3)CCCC2)cc(O)c1=O [Compound 800] | < 20000 | < 100
CNC(=O)c1nn(CC2(n3cc(C)c4cccnc43)CCCC2)cc(OC(=O)OCC(C)(C)C)c1=O [Compound 801] | < 20000 | < 100

Compound | EC50 [1] [nM] | IC50 [2] [nM]
CNC(=O)c1nn(CC2(n3cc(C)c4cccnc43)CCCCC2)cc(OC(=O)OC(C)(C)C)c1=O [Compound 806] | < 20000 | < 100
O=C(NCc1ccccc1)c1nn(CC2(c3cccnc3)CCCC2)cc(O)c1=O [Compound 807] | < 20000 | < 100
CNC(=O)c1nn(CC2(n3ccc4cccc(C)c43)CCCC2)cc(O)c1=O [Compound 808] | < 20000 | < 100
O=C(NCc1ccc(F)c(Cl)c1)c1nn(CC2(c3ccncc3)CCCC2)cc(O)c1=O [Compound 809] | < 20000 | < 100
CNC(=O)c1nn(CC2(n3ccc4ccc(C)cc43)CCCC2)cc(O)c1=O [Compound 810] | < 20000 | < 100
O=C(NCc1ccccc1)c1nn(CC2(c3ccc(F)c(F)c3)CCCC2)cc(O)c1=O [Compound 812] | < 20000 | < 100
CNC(=O)c1nn(CC2(n3c4c(c5cccnc53)CCC4)CCCC2)cc(O)c1=O [Compound 813] | < 20000 | < 100
CNC(=O)c1nn(CC2(n3cc(C)c4cccnc43)CCC2)cc(O)c1=O [Compound 814] | < 20000 | < 100
CNC(=O)c1nn(CC2(n3ccc4cc(F)ccc43)CCCC2)cc(O)c1=O [Compound 816] | < 20000 | < 100
CNC(=O)c1nn(CC2(n3ccc4cc(Cl)cnc43)CCCC2)cc(O)c1=O [Compound 818] | < 20000 | < 100
CC(C)(C)NC(=O)c1nn(CC2(n3ccc4cc(F)ccc43)CCCC2)cc(O)c1=O [Compound 819] | < 20000 | < 100
Cc1cn(C2(Cn3cc(O)c(=O)c(C(=O)NC(C)(C)CO)n3)CCCC2)c2ncccc12 [Compound 820] | < 20000 | < 100
Cc1cn(C2(Cn3cc(O)c(=O)c(C(=O)NCC(C)C)n3)CCCC2)c2ncccc12 [Compound 821] | < 20000 | < 100
Cc1cn(C2(Cn3cc(O)c(=O)c(C(=O)NCC4(CO)CCCC4)n3)CCCC2)c2ncccc12 [Compound 822] | < 20000 | < 100
Cc1cn(C2(Cn3cc(O)c(=O)c(C(=O)NCC(C)(C)CO)n3)CCCC2)c2ncccc12 [Compound 823] | < 20000 | < 100
CNC(=O)c1nn(CC2(n3nc(C)c4ccccc43)CCCC2)cc(O)c1=O [Compound 824] | < 20000 | 100 to 1000
